Data: patent US20240150279A1, “C PRIME AGENTS FOR TREATING METABOLIC DISORDERS” (The University of Toledo, priority 2021, published 2024)

System: PDX1-BIRC5-Survivin axis

Compound: CCC(C)(C)C(=O)OC1CC(C)C=C2C=CC(C)C(CCC(O)CC(O)CC(=O)NO)C21 (stereo not shown) [Sim-CONHOH, Simvastatin-NHOH]
- activity in the PDX1-BIRC5-Survivin bioassays: active
